From patent publication US11795177B2, “Substituted quinoline analogs as aldehyde dehydrogenase 1A1 (ALDH1A1) inhibitors” (THE UNITED STATES OF AMERICA, AS REPRESENTED BY THE …, priority 2017, dated 2023)
Counter-ions that a name gives are not always drawn.

Columns and labels:
[1] = molecular target: T1, ALDH1A1 enzyme (Homo sapiens, UniProt P00352); assay: ALDH1A1 enzymatic assay (in vitro); format: biochemical; conditions: ALDH1A1 enzyme 20 nM, NAD+ 1 mM, propionaldehyde 80 μM; read-out: ALDH1A1 IC50
T1 sequence (P00352 1-501): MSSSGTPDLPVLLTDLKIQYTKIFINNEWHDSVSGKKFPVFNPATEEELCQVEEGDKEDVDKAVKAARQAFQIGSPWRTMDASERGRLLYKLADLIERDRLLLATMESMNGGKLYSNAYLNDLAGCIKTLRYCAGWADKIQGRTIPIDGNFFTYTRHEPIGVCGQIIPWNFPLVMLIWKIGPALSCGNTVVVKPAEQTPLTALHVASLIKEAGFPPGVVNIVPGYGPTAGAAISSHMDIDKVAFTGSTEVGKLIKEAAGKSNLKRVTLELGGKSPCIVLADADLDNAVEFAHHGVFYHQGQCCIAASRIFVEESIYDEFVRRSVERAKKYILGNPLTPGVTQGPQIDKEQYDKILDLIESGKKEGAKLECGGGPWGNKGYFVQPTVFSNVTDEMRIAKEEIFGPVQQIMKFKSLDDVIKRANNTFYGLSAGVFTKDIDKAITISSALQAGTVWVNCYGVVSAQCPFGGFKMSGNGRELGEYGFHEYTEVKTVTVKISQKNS
In short: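 ALDH1A1 (20 nM final) in 100 mM HEPES pH 7.5, 0.01% Tween 20 was preincubated 15 min at RT with compound (968 pM–57.2 μM final), then started with 1 mM NAD+ and 80 μM propionaldehyde. NADH fluorescence (ex 340/em 450 nm) followed kinetically for 10 min; change normalized to no-inhibitor and no-enzyme controls for percent inhibition and curve fitting.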

[2] = test system: MIA PaCa-2 cells; assay: MIA PaCa2 cell-based assay (1,536-well high-content imaging ALDEFLUOR assay); parameters: species or system human; conditions: Homo sapiens, 0.5 h, ALDEFLUOR BAAA substrate 500 nM, 30 minutes
In short: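 High-content ALDEFLUOR imaging readout: BAA-retaining cells in FITC channel scored against Hoechst-counted nuclei. Before imaging, MIA PaCa-2 cells seeded at 1,000 per well received final 500 nM BAAA and 0.5 nM Hoechst with compounds in 16-point series (1.4 nM to 47.8 μM), 30 min, 37° C.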

| IC50 [1] [nM] | IC50 [2] [nM] | SMILES |
| --- | --- | --- |
| < 500 | > 10000 | CC(C)C(=O)N1CCN(C(=O)c2cnc3ccccc3c2N2CCC(C)(C#N)CC2)CC1 [Example 95, 1-(3-(4-isobutyrylpiperazine-1-carbonyl)quinolin-4-yl)-4-methylpiperidine-4-carbonitrile] |
| < 500 | > 10000 | O=C(c1cnc2ccc(F)cc2c1N1CCC2(CC1)OCCO2)N1CCCN(C(=O)C2CC2)CC1 [Example 69, (4-(cyclopropanecarbonyl)-1,4-diazepan-1-yl)(6-fluoro-4-(1,4-dioxa-8-azaspiro[4.5]decan-8-yl)quinolin-3-yl)methanone] |
| < 500 | < 500 | Cc1ccc(C2(C#N)CCN(c3c(C(=O)N4CCN(S(C)(=O)=O)CC4)cnc4ccc(F)cc34)CC2)c(F)c1 [Example 277, 1-(6-fluoro-3-(4-(methylsulfonyl)piperazine-1-carbonyl)quinolin-4-yl)-4-(2-fluoro-4-methylphenyl)piperidine-4-carbonitrile] |
| < 500 | < 500 | CN(C)C(=O)N1CCN(C(=O)c2cnc3ccc(F)cc3c2-c2ccc(C(C)(C)C#N)cc2)CC1 [Example 263, 4-(4-(4-(2-cyanopropan-2-yl)phenyl)-6-fluoroquinoline-3-carbonyl)-N,N-dimethylpiperazine-1-carboxamide] |
| 500 to 1000 | 1000 to 10000 | CCN(CC)C(=O)N1CCN(C(=O)c2cnc3cc(F)c(F)cc3c2N2CCC(C)(C#N)CC2)CC1 [Example 174, 4-(4-(4-cyano-4-methylpiperidin-1-yl)-6,7-difluoroquinoline-3-carbonyl)-N,N-diethylpiperazine-1-carboxamide] |
| < 500 | < 500 | CN(C)S(=O)(=O)N1CCN(C(=O)c2cnc3ccc(Cl)cc3c2-c2ccc(C3(C#N)CC3)cc2)CC1 [Example 298, 4-(6-chloro-4-(4-(1-cyanocyclopropyl)phenyl)quinoline-3-carbonyl)-N,N-dimethylpiperazine-1-sulfonamide] |
| < 500 | < 500 | N#CC1(c2ccccc2)CCN(c2c(C(=O)Nc3cnn(CCO)c3)cnc3ccc(F)cc23)CC1 [Cpd. 345, 4-(4-cyano-4-phenylpiperidin-1-yl)-6-fluoro-N-(1-(2-hydroxyethyl)-1H-pyrazol-4-yl)quinoline-3-carboxamide] |
| < 500 | < 500 | N#CC1(c2ccccc2)CCN(c2c(C(=O)N3CCC(O)(CO)CC3)cnc3ccc(F)cc23)CC1 [Cpd. 351, 1-(6-fluoro-3-(4-hydroxy-4-(hydroxymethyl)piperidine-1-carbonyl)quinolin-4-yl)-4-phenylpiperidine-4-carbonitrile] |
| 1000 to 10000 | > 10000 | CC1(C#N)CCN(c2c(C(=O)N3CCN(S(=O)(=O)N4CCCC4)CC3)cnc3ccc(F)cc23)CC1 [Example 158, 1-(6-fluoro-3-(4-(pyrrolidin-1-ylsulfonyl)piperazine-1-carbonyl)quinolin-4-yl)-4-methylpiperidine-4-carbonitrile] |
| < 500 | 1000 to 10000 | COc1cc2ncc(C(=O)N3CCN(C(C)=O)CC3)c(N3CCC(C)(C#N)CC3)c2cc1OC [Example 112, 1-(3-(4-acetylpiperazine-1-carbonyl)-6,7-dimethoxyquinolin-4-yl)-4-methylpiperidine-4-carbonitrile] |
| < 500 | 1000 to 10000 | COc1ccc2ncc(C(=O)N3CCN(C(=O)C4CC4)CC3)c(N3CCC4(CC3)CC4)c2c1 [Example 46, (4-(cyclopropanecarbonyl)piperazin-1-yl)(6-methoxy-4-(6-azaspiro[2.5]octan-6-yl)quinolin-3-yl)methanone] |
| < 500 | 1000 to 10000 | COc1ccc2ncc(C(=O)N3CCC(OC)CC3)c(N3CCC4(CC3)OCCO4)c2c1 [Example 2, (6-methoxy-4-(1,4-dioxa-8-azaspiro[4.5]decan-8-yl)quinolin-3-yl)(4-methoxypiperidin-1-yl)methanone, TFA] |
| < 500 | > 10000 | COc1ccc2ncc(C(=O)N3CCN(C(=O)c4cnn(C)c4)CC3)c(N3CCC4(CC3)OCCO4)c2c1 [Example 7, (6-methoxy-4-(1,4-dioxa-8-azaspiro[4.5]decan-8-yl)quinolin-3-yl)(4-(1-methyl-1H-pyrazole-4-carbonyl)piperazin-1-yl)methanone, TFA] |
| 1000 to 10000 | > 10000 | CC1(C#N)CCN(c2c(C(=O)N3CCN(S(=O)(=O)N4CCCC4)CC3)cnc3cc(F)c(F)cc23)CC1 [Example 178, 1-(6,7-difluoro-3-(4-(pyrrolidin-1-ylsulfonyl)piperazine-1-carbonyl)quinolin-4-yl)-4-methylpiperidine-4-carbonitrile] |
| < 500 | 1000 to 10000 | CCNC(=O)N1CCN(C(=O)c2cnc3ccc(Cl)cc3c2N2CCC(C)(C#N)CC2)CC1 [Example 121, 4-(6-chloro-4-(4-cyano-4-methylpiperidin-1-yl)quinoline-3-carbonyl)-N-ethylpiperazine-1-carboxamide] |
| < 500 | 1000 to 10000 | N#CC1(c2ccc(Cl)cc2)CCN(c2c(C(=O)N3CCN(C(=O)C4CC4)CC3)cnc3ccc(F)cc23)CC1 [Example 267, 4-(4-chlorophenyl)-1-(3-(4-(cyclopropanecarbonyl)piperazine-1-carbonyl)-6-fluoroquinolin-4-yl)piperidine-4-carbonitrile] |
| < 500 | < 500 | N#CC1(c2ccc(-c3c(C(=O)N[C@H]4CC[C@H](O)CC4)cnc4ccc(F)cc34)cc2)CC1 [Cpd. 338, 4-(4-(1-cyanocyclopropyl)phenyl)-6-fluoro-N-((1R,4R)-4-hydroxycyclohexyl)quinoline-3-carboxamide] |
| 1000 to 10000 | 1000 to 10000 | CCNC(=O)N1CCN(C(=O)c2cnc3c(F)c(F)c(F)cc3c2N2CCC(C)(C#N)CC2)CC1 [Example 148, 4-(4-(4-cyano-4-methylpiperidin-1-yl)-6,7,8-trifluoroquinoline-3-carbonyl)-N-ethylpiperazine-1-carboxamide] |
| < 500 | < 500 | CC(C)(C#N)c1ccc(-c2c(C(=O)N3CCN(S(C)(=O)=O)CC3)ccc3ccccc23)cc1 [Example 299, 2-methyl-2-(4-(2-(4-(methylsulfonyl)piperazine-1-carbonyl)naphthalen-1-yl)phenyl)propanenitrile] |
| < 500 | < 500 | CN(C)S(=O)(=O)N1CCN(C(=O)c2cnc3ccsc3c2-c2ccc(C3(C#N)CC3)cc2)CC1 [Example 284, 4-(7-(4-(1-cyanocyclopropyl)phenyl)thieno[3,2-b]pyridine-6-carbonyl)-N,N-dimethylpiperazine-1-sulfonamide] |
| < 500 | 1000 to 10000 | CCC(=O)N1CCN(C(=O)c2cnc3ccc(F)cc3c2N2CCC3(CC2)OCCO3)CC1 [Example 70, 1-(4-(6-fluoro-4-(1,4-dioxa-8-azaspiro[4.5]decan-8-yl)quinoline-3-carbonyl)piperazin-1-yl)propan-1-one] |
| < 500 | 1000 to 10000 | CCS(=O)(=O)N1CCN(C(=O)c2cnc3cc(F)c(F)cc3c2N2CCC(C)(C#N)CC2)CC1 [Example 176, 1-(3-(4-(ethylsulfonyl)piperazine-1-carbonyl)-6,7-difluoroquinolin-4-yl)-4-methylpiperidine-4-carbonitrile] |
| < 500 | > 10000 | COc1ccc2ncc(C(=O)N3CCN(C(=O)C4CC4)CC3)c(N3CCC(OC)CC3)c2c1 [Example 3, (4-(cyclopropanecarbonyl)piperazin-1-yl)(6-methoxy-4-(4-methoxypiperidin-1-yl)quinolin-3-yl)methanone, TFA] |
| < 500 | < 500 | CC(=O)C1(c2ccccc2)CCN(c2c(C(=O)N3CCN(C(=O)N(C)C)CC3)cnc3ccc(F)cc23)CC1 [Example 271, 4-(4-(4-acetyl-4-phenylpiperidin-1-yl)-6-fluoroquinoline-3-carbonyl)-N,N-dimethylpiperazine-1-carboxamide] |
| < 500 | < 500 | N#CC1(c2ccccc2)CCN(c2c(C(=O)N3CCC(O)(C4CC4)CC3)cnc3ccc(F)cc23)CC1 [Cpd. 348, 1-(3-(4-cyclopropyl-4-hydroxypiperidine-1-carbonyl)-6-fluoroquinolin-4-yl)-4-phenylpiperidine-4-carbonitrile] |
| 1000 to 10000 | > 10000 | N#CC1(c2ccc(-c3c(C(=O)N4CC(O)C4)cnc4ccc(F)cc34)cc2)CC1 [Cpd. 334, 1-(4-(6-fluoro-3-(3-hydroxyazetidine-1-carbonyl)quinolin-4-yl)phenyl)cyclopropane-1-carbonitrile] |
| < 500 | 1000 to 10000 | CC1(C#N)CCN(c2c(C(=O)N3CCN(S(C)(=O)=O)CC3)cnc3c(F)cc(F)cc23)CC1 [Example 135, 1-(6,8-difluoro-3-(4-(methylsulfonyl)piperazine-1-carbonyl)quinolin-4-yl)-4-methylpiperidine-4-carbonitrile] |
